In the oligonucleotide strings, read from the 5' end, every base follows the letter of its sugar. An asterisk marks phosphorothioate; unmarked linkages are phosphodiester. Other units and linkages are bracketed, terminal groups are in braces. A string of capitals states the bases alone. e = 2'-O-(2-methoxyethyl) (MOE); [5mC] = 5-methylcytosine; d = 2'-deoxy (DNA)
test system: Factor XI mRNA; test: Cynomolgus monkeys, 25 mg/kg: liver Factor XI RNA analysis (Example 30); format: in vivo; conditions: 25 mg/kg s.c.; day 55; liver
Summary of the method: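 Cynomolgus monkeys (2 male, 2 female per group) received antisense oligonucleotide at 25 mg/kg subcutaneously, three times weekly in week 1, then twice weekly in weeks 2–8. Liver Factor XI mRNA was quantified by real-time PCR on day 55 and expressed as percent inhibition relative to a PBS-dosed group.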

Row | Substance | % inhibition of Factor XI mRNA in liver relative to the PBS control
1 | 445531 (antisense eG*eG*e[5mC]*eA*eT*dT*dG*dG*dT*dG*d[5mC]*dA*d[5mC]*eA*eG*eT*eT*eT) [compound 445531] | 66%
2 | 445522 (antisense eG*e[5mC]*eA*e[5mC]*eA*dG*dT*dT*dT*d[5mC]*dT*dG*dG*e[5mC]*eA*eG*eG*e[5mC]) [compound 445522] | 89%

same assay, conditions: cynomolgus monkeys, day 55, in comparison to the PBS control

Row | Substance | Factor XI mRNA in liver (in words)
3 | ISIS 416850: gapmer of Table 8 (antisense eT*eG*e[5mC]*eA*e[5mC]*dA*dG*dT*dT*dT*d[5mC]*dT*dG*dG*d[5mC]*eA*eG*eG*e[5mC]*e[5mC]) | significant reduction of Factor XI mRNA

test system: human Factor XI mRNA; test: Dose-dependent inhibition and IC50 in HepG2 cells, microwalk gapmers, electroporation (Example 16); format: cell-based; conditions: electroporation, 375 nM
Method: These gapmers were tested at various doses in HepG2 cells. Cells were plated at a density of 20,000 cells per well and transfected using electroporation with 375 nM, 750 nM, 1,500 nM, 3,000 nM, 6,000 nM and 12,000 nM concentrations of antisense oligonucleotide, as specified in Table 54. After a treatment period of approximately 16 hours, RNA was isolated from the cells and Factor XI mRNA levels were measured by quantitative real-time PCR. Human Factor XI primer probe set RTS 2966 was used to measure mRNA levels. Factor XI mRNA levels were adjusted according to total RNA content, as measured by RIBOGREEN. Results are presented as percent inhibition of Factor XI, relative to untreated control cells.
ISIS 416850, ISIS 416858, ISIS 445522, and ISIS 445531 (see Table 52 above) were re-tested in vitro along with the microwalk gapmers under the same conditions described above.
The chimeric antisense oligonucleotides in Table 53 were designed as 3-8-3 MOE, 4-8-4 MOE, 2-10-2 MOE, 3-10-3 MOE, or 4-10-4 MOE gapmers. The 3-8-3 gapmer is 14 nucleotides in length, wherein the central gap segment is comprised of eight 2′-deoxynucleotides and is flanked on both sides (in the 5′ and 3′ directions) by wings comprising three nucleotides each. The 4-8-4 gapmer is 16 nucleotides in length, wherein the central gap segment is comprised of eight 2′-deoxynucleotides and is flanked on both sides (in the 5′ and 3′ directions) by wings comprising four nucleotides each. The 2-10-2 gapmer is 14 nucleotides in length, wherein the central gap segment is comprised of ten 2′-deoxynucleotides and is flanked on both sides (in the 5′ and 3′ directions) by wings comprising two nucleotides each. The 3-10-3 gapmer is 16 nucleotides in length, wherein the central gap segment is comprised of ten 2′-deoxynucleotides and is flanked on both sides (in the 5′ and 3′ directions) by wings comprising three nucleotides each. The 4-10-4 gapmer is 18 nucleotides in length, wherein the central gap segment is comprised of ten 2′-deoxynucleotides and is flanked on both sides (in the 5′ and 3′ directions) by wings comprising four nucleotides each. For each of the motifs (3-8-3, 4-8-4, 2-10-2, 3-10-3, and 4-10-4), each nucleotide in the 5′ wing segment and each nucleotide in the 3′ wing segment has a 2′-MOE modification. The internucleoside linkages throughout each gapmer are phosphorothioate (P═S) linkages. All cytidine residues throughout each gapmer are 5-methylcytidines. “Human Target start site” indicates the 5′-most nucleotide to which the gapmer is targeted in the human sequence. “Human Target stop site” indicates the 3′-most nucleotide to which the gapmer is targeted in the human sequence. Each gapmer listed in Table 53 is targeted to SEQ ID NO: 1 (GENBANK Accession No. NM_000128.3). Each gapmer is Table 53 is also fully cross-reactive with the rhesus monkey Factor XI gene sequence, designated herein as SEQ ID NO: 274 (exons 1-15 GENBANK Accession No. NW—001118167.1). ‘Rhesus monkey start site’ indicates the 5′-most nucleotide to which the gapmer is targeted in the rhesus monkey sequence. ‘Rhesus monkey stop site’ indicates the 3′-most nucleotide to which the gapmer is targeted to the rhesus monkey sequence.
The first two listed gapmers in Table 54 are the original gapmers (ISIS 416850 and ISIS 416858) from which the remaining gapmers were designed via microwalk and are designated by an asterisk.

Row | Substance | percent inhibition of Factor XI mRNA
4 | 445531 (antisense eG*eG*e[5mC]*eA*eT*dT*dG*dG*dT*dG*d[5mC]*dA*d[5mC]*eA*eG*eT*eT*eT) [compound 445531] | 44%
5 | 445522 (antisense eG*e[5mC]*eA*e[5mC]*eA*dG*dT*dT*dT*d[5mC]*dT*dG*dG*e[5mC]*eA*eG*eG*e[5mC]) [compound 445522] | 59%

same assay, conditions: electroporation, 750 nM

Row | Substance | percent inhibition of Factor XI mRNA
6 | 445531 (antisense eG*eG*e[5mC]*eA*eT*dT*dG*dG*dT*dG*d[5mC]*dA*d[5mC]*eA*eG*eT*eT*eT) [compound 445531] | 64%
7 | 445522 (antisense eG*e[5mC]*eA*e[5mC]*eA*dG*dT*dT*dT*d[5mC]*dT*dG*dG*e[5mC]*eA*eG*eG*e[5mC]) [compound 445522] | 71%

same assay, conditions: electroporation, 1,500 nM

Row | Substance | percent inhibition of Factor XI mRNA
8 | 445531 (antisense eG*eG*e[5mC]*eA*eT*dT*dG*dG*dT*dG*d[5mC]*dA*d[5mC]*eA*eG*eT*eT*eT) [compound 445531] | 78%
9 | 445522 (antisense eG*e[5mC]*eA*e[5mC]*eA*dG*dT*dT*dT*d[5mC]*dT*dG*dG*e[5mC]*eA*eG*eG*e[5mC]) [compound 445522] | 83%

same assay, conditions: electroporation, 3,000 nM

Row | Substance | percent inhibition of Factor XI mRNA
10 | 445531 (antisense eG*eG*e[5mC]*eA*eT*dT*dG*dG*dT*dG*d[5mC]*dA*d[5mC]*eA*eG*eT*eT*eT) [compound 445531] | 86%
11 | 445522 (antisense eG*e[5mC]*eA*e[5mC]*eA*dG*dT*dT*dT*d[5mC]*dT*dG*dG*e[5mC]*eA*eG*eG*e[5mC]) [compound 445522] | 82%

same assay, conditions: electroporation, 6,000 nM

Row | Substance | percent inhibition of Factor XI mRNA
12 | 445531 (antisense eG*eG*e[5mC]*eA*eT*dT*dG*dG*dT*dG*d[5mC]*dA*d[5mC]*eA*eG*eT*eT*eT) [compound 445531] | 91%
13 | 445522 (antisense eG*e[5mC]*eA*e[5mC]*eA*dG*dT*dT*dT*d[5mC]*dT*dG*dG*e[5mC]*eA*eG*eG*e[5mC]) [compound 445522] | 81%

same assay, conditions: electroporation, 12,000 nM

Row | Substance | percent inhibition of Factor XI mRNA
14 | 445531 (antisense eG*eG*e[5mC]*eA*eT*dT*dG*dG*dT*dG*d[5mC]*dA*d[5mC]*eA*eG*eT*eT*eT) [compound 445531] | 93%
15 | 445522 (antisense eG*e[5mC]*eA*e[5mC]*eA*dG*dT*dT*dT*d[5mC]*dT*dG*dG*e[5mC]*eA*eG*eG*e[5mC]) [compound 445522] | 92%

test system: human Factor XI mRNA; test: Dose-dependent inhibition and IC50 in HepG2 cells, electroporation (Example 15); format: cell-based; conditions: electroporation, 123.47 nM
Method: Cells were plated at a density of 20,000 cells per well and transfected using electroporation with 123.46 nM, 370.37 nM, 1,111.11 nM, 3,333.33 nM and 10,000 nM concentrations of antisense oligonucleotide, as specified in Table 52. After a treatment period of approximately 16 hours, RNA was isolated from the cells and Factor XI mRNA levels were measured by quantitative real-time PCR. Human Factor XI primer probe set RTS 2966 was used to measure mRNA levels. Factor XI mRNA levels were adjusted according to total RNA content, as measured by RIBOGREEN. Results are presented as percent inhibition of Factor XI, relative to untreated control cells.

Row | Substance | percent inhibition of Factor XI mRNA
16 | 445531 (antisense eG*eG*e[5mC]*eA*eT*dT*dG*dG*dT*dG*d[5mC]*dA*d[5mC]*eA*eG*eT*eT*eT) [compound 445531] | 8%
17 | 445522 (antisense eG*e[5mC]*eA*e[5mC]*eA*dG*dT*dT*dT*d[5mC]*dT*dG*dG*e[5mC]*eA*eG*eG*e[5mC]) [compound 445522] | 0%

same assay, conditions: electroporation, 370.37 nM

Row | Substance | percent inhibition of Factor XI mRNA
18 | 445531 (antisense eG*eG*e[5mC]*eA*eT*dT*dG*dG*dT*dG*d[5mC]*dA*d[5mC]*eA*eG*eT*eT*eT) [compound 445531] | 16%
19 | 445522 (antisense eG*e[5mC]*eA*e[5mC]*eA*dG*dT*dT*dT*d[5mC]*dT*dG*dG*e[5mC]*eA*eG*eG*e[5mC]) [compound 445522] | 0%

same assay, conditions: electroporation, 1,111.11 nM

Row | Substance | percent inhibition of Factor XI mRNA
20 | 445531 (antisense eG*eG*e[5mC]*eA*eT*dT*dG*dG*dT*dG*d[5mC]*dA*d[5mC]*eA*eG*eT*eT*eT) [compound 445531] | 52%
21 | 445522 (antisense eG*e[5mC]*eA*e[5mC]*eA*dG*dT*dT*dT*d[5mC]*dT*dG*dG*e[5mC]*eA*eG*eG*e[5mC]) [compound 445522] | 44%

same assay, conditions: electroporation, 3,333.33 nM

Row | Substance | percent inhibition of Factor XI mRNA
22 | 445531 (antisense eG*eG*e[5mC]*eA*eT*dT*dG*dG*dT*dG*d[5mC]*dA*d[5mC]*eA*eG*eT*eT*eT) [compound 445531] | 61%
23 | 445522 (antisense eG*e[5mC]*eA*e[5mC]*eA*dG*dT*dT*dT*d[5mC]*dT*dG*dG*e[5mC]*eA*eG*eG*e[5mC]) [compound 445522] | 63%

same assay, conditions: electroporation, 10,000.0 nM

Row | Substance | percent inhibition of Factor XI mRNA
24 | 445531 (antisense eG*eG*e[5mC]*eA*eT*dT*dG*dG*dT*dG*d[5mC]*dA*d[5mC]*eA*eG*eT*eT*eT) [compound 445531] | 77%
25 | 445522 (antisense eG*e[5mC]*eA*e[5mC]*eA*dG*dT*dT*dT*d[5mC]*dT*dG*dG*e[5mC]*eA*eG*eG*e[5mC]) [compound 445522] | 74%
